Test results as given in patent publication US20060130244A1, “Aqueous composition for dyeing keratin fibres comprising a dye and a specific block copolymer” (priority 2004, published 2006).

Legend:
[1] = Stability of dye in alkaline oxidizing medium (test tube, visual coloration); type: physicochemical; conditions: ammoniacal solution
Protocol: The dye tested is Basic Red 76.
In a first trial, an ammoniacal solution at 0.04% by weight of dye at pH=9 was added to a test tube and the solution was left to stand for 1 hour.
In a second trial, an ammoniacal solution at 0.04% by weight of dye at pH=9 was added to a test tube in the presence of a poly(sodium acrylate-b-acrylamide) diblock copolymer, in which each block has, respectively, a number-average molecular mass of 5000 and 30 000, and in the presence of aqueous hydrogen peroxide at 3%, and the mixture is left to stand for 1 hour.

[2] = Solubility of dye in aqueous medium (test tube, visual appearance); type: physicochemical
Protocol: The dye tested is Astrazon Orange R (or Basic Orange 22).
In a first trial, an aqueous solution comprising 0.04% of dye is added to a test tube.
In a second trial, a solution comprising 0.04% of dye, followed by 0.05% by weight of a poly(sodium acrylate-b-acrylamide) diblock copolymer (copolymer of Example 2), are added to a test tube. […] This thus attests to the ability of the block polymers in accordance with the invention to increase the solubility of dyes that are difficult to solubilize in an aqueous medium.

Row | Compound | coloration of the solution after standing 1 hour, dye alone ([1]; 0.04% by weight of dye, pH 9, no copolymer) | coloration of the solution after standing 1 hour, with block copolymer ([1]; 0.04% dye, pH 9, with poly(sodium acrylate-b-acrylamide) diblock copolymer (5000/30 000) and 3% aqueous hydrogen peroxide) | appearance of aqueous solution, with block copolymer ([2]; 0.04% of dye plus 0.05% by weight poly(sodium acrylate-b-acrylamide) diblock copolymer) | appearance of aqueous solution, dye alone ([2]; aqueous solution, 0.04% of dye, no copolymer)
1 | COc1ccccc1N=Nc1c(O)ccc2ccc([N+](C)(C)C)cc12.[Cl-] [Basic Red 76] | visible loss of coloration | remains stable | – | –
2 | Astrazon Orange R | – | – | clear solution | cloudy appearance
